Source: patent US20240287100A1, “ALKYLIDENE DERIVATIVES AS KRAS INHIBITORS” (NIKANG THERAPEUTICS, INC., priority 2021, published 2024)

Target: T1, K-Ras G12D (Homo sapiens, UniProt P01116, G12D)
T1 construct: AGS (Cobioer, CBP60476) cell lines which harbor KRAS G12D mutation; host or cells: AGS
Experiment: p-ERK Cellular 1-Plate Assay (AlphaLISA SureFire Ultra p-ERK1/2) in AGS cells
Type: cell-based
Settings: AGS cells harboring KRAS G12D mutation, 3 h at 37° C., 5,000 cells per well
Experimental: p-ERK Cellular 1-Plate Assay
The ability of the compound of Formula (I) or a pharmaceutically acceptable salt thereof (test compound) to inhibit K-Ras G12D activity was tested using AGS (Cobioer, CBP60476) cell lines which harbor KRAS G12D mutation as described below.
AGS (Cobioer, CBP60476) were seeded in 384-well plates and cultured overnight (5,000 cells per well, 40 μl total volume). The following morning, cells were treated with test compound, with starting concentration at 10 μM and 3-fold dilution down to 0.5 nM for 3 h at 37° C. DMSO treatment served as control, p-ERK was then measured using AlphaLISA SureFire Ultra p-ERK1/2 (Thr202/Tyr204) Assay Kit (Perkin Elmer, cat #ALSU-PERK) following the manufacturer's instruction as follows.
Briefly, the culture medium was removed and 10 μl 1× lysis buffer was added to each well, followed by 10 minutes incubation on a plate shaker at room temperature. Acceptor mixture was prepared according to manufacturer's instruction. 5 μl acceptor mixture was added to the cell lysate and the plate was wrapped with foil, spun at 500 rpm for 10 s and incubated at RT for 60 min. Donor mixture was prepared under subdued light. 5 μl donor mixture was added to the cell lysate and the plate was spun at 500 rpm for 10s and incubated at RT for another 60 min. in the dark. Signal was then measured on a EnVision 2105 multimode plate reader. […]

T1 sequence (P01116 1-188 isoform P01116-2 G12D): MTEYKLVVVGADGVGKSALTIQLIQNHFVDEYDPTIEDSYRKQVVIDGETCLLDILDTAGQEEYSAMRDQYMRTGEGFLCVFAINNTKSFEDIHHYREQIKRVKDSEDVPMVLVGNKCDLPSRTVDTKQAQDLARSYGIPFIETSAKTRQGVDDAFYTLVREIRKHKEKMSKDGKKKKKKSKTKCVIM

Structure (SMILES)	EC50 [µM]
C#Cc1c(F)ccc2cccc(-c3ncc4c(N5CC6CCC(C)(C5)N6)nc(OC[C@]56CC(=C)CN5C[C@@H](F)C6)nc4c3F)c12 (stereo partly drawn) [Example 30, 7-(8-ethynyl-7-fluoronaphthalen-1-yl)-8-fluoro-2-(((2S,7aR)-2-fluoro-6-methylenetetrahydro-1H-pyrrolizin-7a(5H)-yl)methoxy)-4-(1-methyl-3,8-diazabicyclo[3.2.1]octan-3-yl)pyrido[4,3-d]pyrimidine]	0.17
C#Cc1c(F)ccc2cccc(-c3ncc4c(N5CC6CCC5CN6)nc(OC[C@]56CC(=C)CN5C[C@H](F)C6)nc4c3F)c12 (stereo partly drawn) [Example 31, 2-(7-(8-ethynyl-7-fluoronaphthalen-1-yl)-8-fluoro-2-(((2R,7aR)-2-fluoro-6-methylenetetrahydro-1H-pyrrolizin-7a(5H)-yl)methoxy)pyrido[4,3-d]pyrimidin-4-yl)-2,5-diazabicyclo[2.2.2]octane]	> 0.1
